# Data: the supplement of paper PMC10331698
# ± gives the standard deviation of the averaged measurements.
# What was measured:
# Experiment in all cases: LOEC (log10 uM (lowest observed effect concentration))
# [1] = compound: CCN(CCO)S(=O)(=O)C(F)(F)C(F)(F)C(F)(F)C(F)(F)C(F)(F)C(F)(F)C(F)(F)C(F)(F)F [N-Ethyl-N-(2-hydroxyethyl)perfluorooctanesulfonamide]
# Method: (§1)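 BioMAP Diversity Plus panel in human primary cell co-cultures, 4 concentrations in duplicate blinded samples. Responses are log10 fold change versus DMSO control, processed with tcpl v2.1.0. A hit is called when responses at any concentration exceed the cutoff (the larger of 3*bmad or log10(1.2)); the lowest observed effect concentration (modl_ga, log10 uM) is reported for hits.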
# [2] = compound: C[N+](C)(C)CCCNS(=O)(=O)C(F)(F)C(F)(F)C(F)(F)C(F)(F)C(F)(F)C(F)(F)C(F)(F)C(F)(F)F [Perfluorooctanesulfonamido ammonium iodide]
# Method: as §1
# [3] = compound: FC(F)(F)C(F)(F)C(F)(F)C(F)(F)C(F)(F)CCI [1-Iodo-1H,1H,2H,2H-perfluoroheptane]
# Method: as §1
# Perfluorodecanoic acid = compound: O=C(O)C(F)(F)C(F)(F)C(F)(F)C(F)(F)C(F)(F)C(F)(F)C(F)(F)C(F)(F)C(F)(F)F [Perfluorodecanoic acid]
# Method: as §1
# [4] = compound: OCCCC(F)(F)C(F)(F)C(F)(F)C(F)(F)C(F)(F)C(F)(F)C(F)(F)F [7:3 Fluorotelomer alcohol]
# Method: as §1
# [5] = compound: O=C(O)C(F)(F)C(F)(F)C(F)(F)C(F)(F)C(F)(F)C(F)(F)C(F)(F)C(F)F [9-H-Perfluorononanoic acid]
# Method: as §1
# [6] = compound: O=C(O)C(F)(F)C(F)(F)C(F)(F)OC(F)(C(F)(F)F)C(F)(F)F [Perfluoro-4-isopropoxybutanoic acid]
# Method: as §1
# [7] = compound: O=S(=O)(O)C(F)(F)C(F)(F)C(F)(F)C(F)(F)C(F)(F)C(F)(F)F [Perfluorohexanesulfonic acid]
# Method: as §1
# [8] = compound: OCC(F)(F)OC(F)(F)C(F)(F)OC(F)(F)CO [1H,1H,8H,8H-Perfluoro-3,6-dioxaoctane-1,8-diol]
# Method: as §1
# Perfluoro-1-iodohexane = compound: FC(F)(F)C(F)(F)C(F)(F)C(F)(F)C(F)(F)C(F)(F)I [Perfluoro-1-iodohexane]
# Method: as §1
# [9] = compound: OCCC(F)(F)C(F)(F)C(F)(F)C(F)(F)C(F)(F)C(F)(F)F [6:2 Fluorotelomer alcohol]
# Method: as §1
# [10] = compound: C=CC(=O)OCC(F)(F)C(F)(F)C(F)(F)C(F)(F)C(F)(F)C(F)(F)C(F)(F)F [1H,1H-Perfluorooctyl acrylate]
# Method: as §1
# Perfluoroheptanoic acid = compound: O=C(O)C(F)(F)C(F)(F)C(F)(F)C(F)(F)C(F)(F)C(F)(F)F [Perfluoroheptanoic acid]
# Method: as §1
# [11] = compound: O=C(O)C(F)(F)OC(F)(F)C(F)(F)OC(F)(F)F [Perfluoro-3,6-dioxaheptanoic acid]
# Method: as §1
Test System,LOEC (log10 uM) [1],LOEC (log10 uM) [2],LOEC (log10 uM) (Perfluorodecanoic acid),LOEC (log10 uM) [4],LOEC (log10 uM) [5],other results
hDFCGF IP10 down,1.07 ± 0.32,1.78,1.07 ± 0.32,1.3,,LOEC (log10 uM) [3]: 1.78
LPS IL8 up,,,,,1.54 ± 0.34,LOEC (log10 uM) [6]: 1.54 ± 0.34
BF4T tPA down,,1.3,1.3,1.78,1.07 ± 0.32,
BE3C MMP1 up,0.845,1.78,,,1.78,LOEC (log10 uM) [3]: 1.54 ± 0.34; LOEC (log10 uM) [7]: 1.78
hDFCGF MMP1 down,1.78,,1.3,1.3,1.3,
IMphg CD40 down,,1.54 ± 0.34,1.78,1.78,,LOEC (log10 uM) [8]: 1.3
MyoF CollagenI down,1.3,1.78,1.3,1.78,,LOEC (log10 uM) (Perfluoro-1-iodohexane): 1.78
BF4T ICAM1 down,,,1.3,1.78,1.07 ± 0.32,
3C SRB down,1.07 ± 0.32,1.78,1.78,1.3,,LOEC (log10 uM) [9]: 1.78
SAg Proliferation down,1.3,1.78,1.78,1.3,,LOEC (log10 uM) [9]: 1.78
BE3C HLADR down,1.3,1.78,1.3,1.78,1.07 ± 0.32,
3C Proliferation down,0.573 ± 0.39,1.78,1.78,1.07 ± 0.32,,LOEC (log10 uM) [10]: 1.78; LOEC (log10 uM) [3]: 1.78; LOEC (log10 uM) [9]: 1.78
MyoF ACTA1 down,1.3,1.3,1.78,1.78,,LOEC (log10 uM) (Perfluoro-1-iodohexane): 1.3
IMphg IL10 down,,1.3,1.78,,1.78,LOEC (log10 uM) [7]: 1.78
BT PBMCCytotoxicity up,,,,,1.78,
BF4T Eotaxin3 down,,,1.3,1.31 ± 0.66,0.845,LOEC (log10 uM) [3]: 1.78
MyoF VCAM1 down,1.3,1.78,1.54 ± 0.34,1.78,,LOEC (log10 uM) (Perfluoro-1-iodohexane): 1.54 ± 0.34
hDFCGF VCAM1 down,1.54 ± 0.34,1.78,0.801 ± 0.71,1.3,,LOEC (log10 uM) [3]: 1.78; LOEC (log10 uM) [9]: 1.78

Test System,LOEC (log10 uM) [1],LOEC (log10 uM) [2],LOEC (log10 uM) (Perfluorodecanoic acid),LOEC (log10 uM) [4],LOEC (log10 uM) [5],other results
hDFCGF PAI1 down,1.54 ± 0.34,1.78,1.54 ± 0.34,1.3,,LOEC (log10 uM) [9]: 1.78
IMphg IL8 up,1.78,,,,1.78,LOEC (log10 uM) (Perfluoroheptanoic acid): 1.78; LOEC (log10 uM) [6]: 1.78; LOEC (log10 uM) [11]: 1.78
BF4T MCP1 down,,,1.3,1.54 ± 0.34,0.573 ± 0.39,
BF4T PAI1 down,,,1.3,1.78,0.845,
hDFCGF Proliferation down,0.573 ± 0.39,,1.3,0.845,,LOEC (log10 uM) [10]: 1.78; LOEC (log10 uM) [3]: 1.3; LOEC (log10 uM) [9]: 1.78
hDFCGF MCSF down,1.07 ± 0.32,,1.3,1.3,,LOEC (log10 uM) [3]: 1.78
BT Bcell Proliferation up,,,1.78,,1.78,
MyoF MMP1 up,1.3,1.78,,,,LOEC (log10 uM) (Perfluoro-1-iodohexane): 1.3
hDFCGF SRB up,,,,,1.54 ± 0.34,
MyoF SRB down,1.3,1.78,1.54 ± 0.34,1.78,,LOEC (log10 uM) (Perfluoro-1-iodohexane): 1.3
MyoF CollagenIII down,1.3,1.78,1.3,1.78,,LOEC (log10 uM) (Perfluoro-1-iodohexane): 1.78
4H Pselectin up,,,,,1.78,
BE3C IP10 down,1.3,1.78,0.845,1.78,1.78,
BT xIL17F down,1.3,1.3,,1.3,,LOEC (log10 uM) [10]: 1.3
CASM3C Proliferation down,1.3,,,1.3,,LOEC (log10 uM) [3]: 1.54 ± 0.34
hDFCGF ITAC down,1.07 ± 0.32,1.78,1.3,1.3,1.54 ± 0.34,LOEC (log10 uM) [3]: 1.78; LOEC (log10 uM) [9]: 1.78
MyoF PAI1 down,,1.78,1.78,1.78,,LOEC (log10 uM) (Perfluoro-1-iodohexane): 1.78
